Experiments:
Format in all cases: in vivo, mice (C57BL/6)
[1] = Feed intake of mice in STZ-induced insulin-resistant diabetes model; design: feed intake: unit not given here
Procedure: (§1) STZ (Sigma-aldrich, S0130, 40 mg/kg b.w., in 0.1 M citrate buffer pH 4.5) was intraperitoneally administered to 9-week-old male mice (C57BL/6) once/1 day for 5 days to perform a first disease induction. After 7 weeks of the first induction, a second induction was performed using the same method as the first induction. For 5 days of an STZ administration period for the first induction, 10% sucrose was administered as drinking water. In addition, after 14 days of the second administration, blood sugar was confirmed to confirm the induction rate, and the induced animals were separated into groups. Experimental substances (R)-4-{(R)-1-[7-(3,4,5-trimethoxy-phenyl)-[1,6] naphthyridine-5-yloxy]-ethyl}pyrrolidine-2-one (BI-1002494) and cromolyn (OC-101) were administered orally into the stomach at 10 mL/kg using an oral administration syringe (sonde) before 16:00 daily for 12 weeks at a frequency of 7 days/week at doses shown in Table 1 below, respectively, and dexamethasone was orally administered as a positive control substance.

[2] = Body weight of mice in STZ-induced insulin-resistant diabetes model
Procedure: as §1

[3] = test system: animal model of insulin-resistant diabetes; experiment: Blood sugar, tail vein blood, blood sugar meter, 4 h fasting; design: blood sugar, Mean: unit not given here
Procedure: as §1
Before disease induction, excluding week 9 of administration of experimental substances to mice in each group of Example 1 above, after 2 weeks after the first induction (based on a first administration date), and after 6 weeks and 2 weeks of the second induction (based on the first administration date), blood was collected from the tail vein and blood sugar was measured using a blood sugar meter (Accu-Check, Roche), and fasting was performed for 4 hours from 9:30 a.m. to 1:30 p.m.

With `COc1cc(-c2cc3ncccc3c(O[C@H](C)[C@H]3CNC(=O)C3)n2)cc(OC)c1OC` [BI-1002494, (R)-4-{(R)-1-[7-(3,4,5-trimethoxy-phenyl)-[1,6]naphthyridine-5-yloxy]-ethyl}pyrrolidine-2-one] as the compound, how does the “feed intake compared to the disease control group” value ([1]; 12.5 mg/kg, after week 4 of administration) read?
The value was “statistically significantly decreased”.

And the feed intake ([1]; 25 mg/kg/day oral, week 1)?
Its feed intake is 5.60.

And the feed intake ([1]; 25 mg/kg/day oral, week 2)?
Its feed intake is 5.58.

What about the feed intake ([1]; 25 mg/kg/day oral, week 3) of the same compound?
The feed intake was 5.26.

What about the feed intake ([1]; 25 mg/kg/day oral, week 4) of the same compound?
The feed intake was 4.99.

And the feed intake ([1]; 25 mg/kg/day oral, week 5)?
The feed intake was 5.15.

What about the feed intake ([1]; 25 mg/kg/day oral, week 7) of the same compound?
Its feed intake is 5.04.

What about the feed intake ([1]; 25 mg/kg/day oral, week 8) of the same compound?
Its feed intake is 4.95.

And the feed intake ([1]; 25 mg/kg/day oral, week 9)?
The feed intake was 4.62.

What about the feed intake ([1]; 25 mg/kg/day oral, week 10) of the same compound?
Its feed intake is 4.63.

And the “feed intake compared to the disease control group” value ([1]; 25 mg/kg, after week 6 of administration)?
Its value is “statistically significantly decreased”.

And the feed intake ([1]; 50 mg/kg/day oral, week 1)?
Its feed intake is 5.74.

And the feed intake ([1]; 50 mg/kg/day oral, week 4)?
The feed intake was 5.14.

What about the feed intake ([1]; 50 mg/kg/day oral, week 7) of the same compound?
The feed intake was 5.11.

What about the feed intake ([1]; 50 mg/kg/day oral, week 9) of the same compound?
The feed intake was 4.30.

What about the feed intake ([1]; 50 mg/kg/day oral, week 10) of the same compound?
Its feed intake is 4.14.

What about the “feed intake compared to the disease control group” value ([1]; 50 mg/kg, after week 8 of administration) of the same compound?
The value was “statistically significantly decreased”.

What about the body weight, Mean ([2]; 12.5 mg/kg/day oral, week 0) of the same compound?
Its body weight, Mean is 24 g.

And the body weight, Mean ([2]; 12.5 mg/kg/day oral, week 1)?
Its body weight, Mean is 23.7 g.

And the body weight, Mean ([2]; 12.5 mg/kg/day oral, week 2)?
The body weight, Mean was 23 g.

What about the body weight, Mean ([2]; 12.5 mg/kg/day oral, week 3) of the same compound?
Its body weight, Mean is 24.1 g.

What about the body weight, Mean ([2]; 12.5 mg/kg/day oral, week 4) of the same compound?
Its body weight, Mean is 24.3 g.

And the “body weight compared to the disease control group” value ([2]; 12.5 mg/kg, after week 5 of administration)?
Its value is “statistically significantly increased”.

And the body weight, Mean ([2]; 25 mg/kg/day oral, week 0)?
The body weight, Mean was 23.6 g.

And the body weight, Mean ([2]; 25 mg/kg/day oral, week 1)?
Its body weight, Mean is 23.5 g.

And the body weight, Mean ([2]; 25 mg/kg/day oral, week 2)?
The body weight, Mean was 23.7 g.

And the body weight, Mean ([2]; 25 mg/kg/day oral, week 3)?
The body weight, Mean was 23.9 g.

What about the body weight, Mean ([2]; 25 mg/kg/day oral, week 4) of the same compound?
Its body weight, Mean is 23.9 g.

What about the body weight, Mean ([2]; 25 mg/kg/day oral, week 5) of the same compound?
Its body weight, Mean is 24 g.

What about the body weight, Mean ([2]; 25 mg/kg/day oral, week 6) of the same compound?
Its body weight, Mean is 23.9 g.

And the body weight, Mean ([2]; 25 mg/kg/day oral, week 7)?
The body weight, Mean was 24 g.

And the “body weight compared to the disease control group” value ([2]; 25 mg/kg, after week 8)?
Its value is “statistically significantly increased”.

What about the body weight, Mean ([2]; 50 mg/kg/day oral, week 0) of the same compound?
The body weight, Mean was 23.9 g.

What about the body weight, Mean ([2]; 50 mg/kg/day oral, week 2) of the same compound?
Its body weight, Mean is 23.8 g.

And the body weight, Mean ([2]; 50 mg/kg/day oral, week 3)?
Its body weight, Mean is 23.8 g.

And the body weight, Mean ([2]; 50 mg/kg/day oral, week 4)?
The body weight, Mean was 23.8 g.

What about the body weight, Mean ([2]; 50 mg/kg/day oral, week 5) of the same compound?
Its body weight, Mean is 23.6 g.

And the body weight, Mean ([2]; 50 mg/kg/day oral, week 6)?
Its body weight, Mean is 23.8 g.

What about the body weight, Mean ([2]; 50 mg/kg/day oral, week 7) of the same compound?
Its body weight, Mean is 24 g.

And the “body weight compared to the disease control group” value ([2]; 50 mg/kg, after week 8)?
Its value is “statistically significantly increased”.

And the “blood sugar, Mean” value ([3]; 12.5 mg/kg/day oral, value column 2 of 6, head prints only weeks 0, 4, 8, 10)?
Its value is 319.5.

And the “blood sugar, Mean” value ([3]; 12.5 mg/kg/day oral, week 0)?
The value was 291.1.

And the “blood sugar, Mean” value ([3]; 25 mg/kg/day oral, value column 2 of 6, head prints only weeks 0, 4, 8, 10)?
The value was 310.1.

And the “blood sugar, Mean” value ([3]; 25 mg/kg/day oral, week 0)?
Its value is 301.2.

What about the “blood sugar, Mean” value ([3]; 50 mg/kg/day oral, value column 2 of 6, head prints only weeks 0, 4, 8, 10) of the same compound?
The value was 264.5.

And the “blood sugar, Mean” value ([3]; 50 mg/kg/day oral, week 0)?
Its value is 303.7.

What about the “blood sugar compared to the positive control group” value ([3]; administered group, dose not specified) of the same compound?
Its value is “decreased significantly”.

And the “blood sugar, summary” value ([3]; after induction of diabetic disease, 12.5-50 mg/kg)?
Its value is “decreased in a dose-dependent manner”.
